Laboratory results reported in PubChem BioAssay AID1963960 (Molecular Pharmacology Branch, DTP, NCI, 2024).

System: MDA-MB-468 spheroids with HUVEC/MSC, viability
Assay: Anticancer human tumor MDA-MB-468 cell line growth inhibition [PI3K];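 also: spheroids exposed to agents for seven days before readout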;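 as to viability, T/C: 100% = DMSO vehicle control viability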
Settings: for viability, T/C: stronger effect = lower value
Excerpt: Combinatorial screen of targeted agents with the PI3K inhibitors inavolisib, alpelisib, duvelisib, and copanlisib in multi-cell type tumor spheroids
A high-throughput screen of multi-cell type tumor spheroids was designed to identify active combinations of targeted small molecules and PI3K pathway inhibitors. Complex spheroids include a stromal component modeled by human endothelial cells (HUVEC) and fibroblasts modeled by human mesenchymal stem cells (MSCs). The concentration ranges selected for each drug and investigational agent were based upon clinically achievable concentrations if the clinical Cmax of the agent was known.
Compounds. The drugs and investigational agents: inavolisib (NSC800729), alpelisib (NSC765974), duvelisib (NSC772469), copanlisib (NSC816437), ipatasertib (NSC767898), afuresertib (NSC778305), talazoparib (NSC767125), sapanisertib (NSC764658), selumetinib (NSC741078), tovorafenib (DAY101, NSC766906), vemurafenib (NSC761431), ravoxertinib (NSC781343), sotorasib (NSC818433), MRTX1133 (NSC 836407), abemaciclib (NSC 768073), palbociclib (NSC758247), venetoclax (NSC 766270), SY5609 (NSC837396), enzalutamide (NSC755605), and darolutamide (NSC825331), were obtained from the National Cancer Institute (NCI) Developmental Therapeutics Program Chemical Repository. The FDA-approved anticancer drug set is available from the NCI Developmental Therapeutics Program. […] The stock solutions were prepared in dimethyl sulfoxide (DMSO, Sigma-Aldrich, St. Louis, MO, cat. D2650) at 800-fold the tested concentration and stored at -70 degrees C prior to their use. All drugs and investigational agents were tested over a range starting from a high concentration at or near the clinical Cmax and decreasing in half-log increments. If the clinical Cmax for an agent had not been determined, the highest concentration tested was 10 microM.
Cell Culture. All cells were maintained in an incubator at 37 degrees C and 5% CO2 with 95% humidity. The PDC lines were cultured according to standard operating procedures established by the NCI PDMR (https://pdmr.cancer.gov/sops/default.htm). All PDCs were thawed and cultured in Matrigel-coated flasks prepared with a working solution of 1X Ham's F-12 nutrient mix, without supplementation (Invitrogen, Waltham, MA, cat. 11765054), 100 U/mL penicillin-streptomycin (Invitrogen, cat. 15140122), and 2.5% Matrigel (Corning Inc., Corning, NY, cat. 354248) for the first three passages. The 354836-022-R-J1-PDC, 475296-252-R-J1-PDC, and 997726-040-R-J2-PDC lines were cultured in 6A media, which includes advanced DMEM/F-12 (Thermo Fisher Scientific, cat. 12634028), 10 mM HEPES (Thermo Fisher Scientific, cat. 15630080), 1X GlutaMAX supplement (Thermo Fisher Scientific, cat. 35050061), 0.1 mg/mL primocin (InvivoGen, San Diego, CA, cat. ant-pm-2), 10% defined fetal bovine serum, heat inactivated (HyClone Laboratories Inc., Logan, UT, cat. SH30070.03HI), 50% L-WRN conditioned media (ATCC, cat. CRL-3276), 1.25 mM N-Acetyl-L-cysteine (Sigma-Aldrich, cat. A9165), 10 mM nicotinamide (Sigma-Aldrich, cat. N0636), 1X B-27 supplement (Thermo Fisher Scientific, cat. 17504044), 1X N-2 supplement (Thermo Fisher Scientific, cat. 17502048), and 10 microM Y-27632 dihydrochloride (Tocris Bioscience, Bristol, United Kingdom, cat. 1254). The 624824-186-R-J2-PDC line was cultured in 6C/Colon 1B media, which includes all 6A media components plus 50 ng/mL human EGF recombinant protein (Thermo Fisher Scientific, cat. PHG0311). […]

CCCS(=O)(=O)Nc1ccc(F)c(C(=O)c2c[nH]c3ncc(-c4ccc(Cl)cc4)cc23)c1F
viability, T/C (compound 0.316 µM): 107% [middle of 4 runs] | viability, T/C (compound 1 µM): 97.7% [middle of 4 runs] | viability, T/C (compound 3.16 µM): 78.9% [middle of 4 runs] | viability, T/C (compound 10 µM): 16.4% [middle of 4 runs] | IC50 (curve of compound): 5.5 µM [middle of 4 runs]

C=CC(=O)N1CCN(c2nc(=O)n(-c3c(C)ccnc3C(C)C)c3nc(-c4c(O)cccc4F)c(F)cc23)C(C)C1 (configuration not stated) + Cc1nc(NC(=O)N2CCCC2C(N)=O)sc1-c1ccnc(C(C)(C)C(F)(F)F)c1
IC50 (curve of first compound, second compound 0.0316 µM): > 10 µM | IC50 (curve of first compound, second compound 0.1 µM): > 10 µM | IC50 (curve of first compound, second compound 0.316 µM): > 10 µM | IC50 (curve of first compound, second compound 1 µM): 6.13 µM | IC50 (curve of first compound, second compound 3.16 µM): 1.26 µM | IC50 (curve of first compound, second compound 10 µM): < 0.0316 µM | viability, T/C (second compound 0.0316 µM, first compound 0.0316 µM): 94.9% | viability, T/C (second compound 0.0316 µM, first compound 0.1 µM): 92.7% | viability, T/C (second compound 0.0316 µM, first compound 0.316 µM): 82.9% | viability, T/C (second compound 0.0316 µM, first compound 1 µM): 131% | viability, T/C (second compound 0.0316 µM, first compound 3.16 µM): 113% | viability, T/C (second compound 0.0316 µM, first compound 10 µM): 67.8% | viability, T/C (second compound 0.1 µM, first compound 0.0316 µM): 93.2% | viability, T/C (second compound 0.1 µM, first compound 0.1 µM): 100% | viability, T/C (second compound 0.1 µM, first compound 0.316 µM): 97.1% | viability, T/C (second compound 0.1 µM, first compound 1 µM): 122% | viability, T/C (second compound 0.1 µM, first compound 3.16 µM): 95.9% | viability, T/C (second compound 0.1 µM, first compound 10 µM): 63.6% | viability, T/C (second compound 0.316 µM, first compound 0.0316 µM): 101% | viability, T/C (second compound 0.316 µM, first compound 0.1 µM): 100% | viability, T/C (second compound 0.316 µM, first compound 0.316 µM): 88.1% | viability, T/C (second compound 0.316 µM, first compound 1 µM): 91.6% | viability, T/C (second compound 0.316 µM, first compound 3.16 µM): 86.2% | viability, T/C (second compound 0.316 µM, first compound 10 µM): 57.5% | viability, T/C (second compound 1 µM, first compound 0.0316 µM): 77.4% | viability, T/C (second compound 1 µM, first compound 0.1 µM): 80.9% | viability, T/C (second compound 1 µM, first compound 0.316 µM): 78.1% | viability, T/C (second compound 1 µM, first compound 1 µM): 88.3% | viability, T/C (second compound 1 µM, first compound 3.16 µM): 56.9% | viability, T/C (second compound 1 µM, first compound 10 µM): 44.9% | viability, T/C (second compound 3.16 µM, first compound 0.0316 µM): 82.7% | viability, T/C (second compound 3.16 µM, first compound 0.1 µM): 63.7% | viability, T/C (second compound 3.16 µM, first compound 0.316 µM): 55.8% | viability, T/C (second compound 3.16 µM, first compound 1 µM): 60.8% | viability, T/C (second compound 3.16 µM, first compound 3.16 µM): 40.9% | viability, T/C (second compound 3.16 µM, first compound 10 µM): 37.2% | viability, T/C (second compound 10 µM, first compound 0.0316 µM): 43.8% | viability, T/C (second compound 10 µM, first compound 0.1 µM): 31.2% | viability, T/C (second compound 10 µM, first compound 0.316 µM): 34.3% | viability, T/C (second compound 10 µM, first compound 1 µM): 25.6% | viability, T/C (second compound 10 µM, first compound 3.16 µM): 21.9% | viability, T/C (second compound 10 µM, first compound 10 µM): 15.8%
